From PubChem BioAssay AID2060906 (Molecular Pharmacology Branch, DTP, NCI, 2025)

Tested on: 485176-168-R4-J1-PDC complex spheroid growth
Assay: Anticancer human tumor 485176-168-R4-J1-PDC patient-derived pancreatic adenocarcinoma cell line growth inhibition [RAS]
Settings: for IC50: curve of first compound; for viability, T/C: stronger effect = lower value
Procedure, shortened: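 Agents were tested in combination matrices in half-log decrements from a top concentration at or near clinical Cmax (10 microM if undetermined). Targets were multi-cell spheroids of tumour lines plus HUVEC and MSC stromal cells.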

[1] = second compound 0.00316 µM, first compound 0.0316 µM
[2] = second compound 0.00316 µM, first compound 0.1 µM
[3] = second compound 0.00316 µM, first compound 0.316 µM
[4] = second compound 0.00316 µM, first compound 1 µM
[5] = second compound 0.00316 µM, first compound 3.16 µM
[6] = second compound 0.00316 µM, first compound 10 µM
[7] = second compound 0.01 µM, first compound 0.0316 µM
[8] = second compound 0.01 µM, first compound 0.1 µM
[9] = second compound 0.01 µM, first compound 0.316 µM
[10] = second compound 0.01 µM, first compound 1 µM
[11] = second compound 0.01 µM, first compound 3.16 µM
[12] = second compound 0.01 µM, first compound 10 µM
[13] = second compound 0.0316 µM, first compound 0.0316 µM
[14] = second compound 0.0316 µM, first compound 0.1 µM
[15] = second compound 0.0316 µM, first compound 0.316 µM
[16] = second compound 0.0316 µM, first compound 1 µM
[17] = second compound 0.0316 µM, first compound 3.16 µM
[18] = second compound 0.0316 µM, first compound 10 µM
[19] = second compound 0.1 µM, first compound 0.0316 µM
[20] = second compound 0.1 µM, first compound 0.1 µM
[21] = second compound 0.1 µM, first compound 0.316 µM
[22] = second compound 0.1 µM, first compound 1 µM
[23] = second compound 0.1 µM, first compound 3.16 µM
[24] = second compound 0.1 µM, first compound 10 µM
[25] = second compound 0.316 µM, first compound 0.0316 µM
[26] = second compound 0.316 µM, first compound 0.1 µM
[27] = second compound 0.316 µM, first compound 0.316 µM
[28] = second compound 0.316 µM, first compound 1 µM
[29] = second compound 0.316 µM, first compound 3.16 µM
[30] = second compound 0.316 µM, first compound 10 µM
[31] = second compound 1 µM, first compound 0.0316 µM
[32] = second compound 1 µM, first compound 0.1 µM
[33] = second compound 1 µM, first compound 0.316 µM
[34] = second compound 1 µM, first compound 1 µM
[35] = second compound 1 µM, first compound 3.16 µM
[36] = second compound 1 µM, first compound 10 µM
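Also: spheroids exposed to compounds for seven days before readout.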
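For viability, T/C in this document: luminescence viability expressed relative to DMSO vehicle wells set as 100%.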

Cc1nc(N2CCC3(CC2)COC(C)C3N)c(CO)nc1Sc1ccnc(N)c1Cl (stereo unspecified) + C=CC(=O)N1CCN(c2nc(OCC3CCCN3C)nc3c(F)c(-c4nc(N)cc(C)c4C(F)(F)F)c(Cl)cc23)C(C)C1
IC50 (second compound 0.00316 µM): > 10 µM
IC50 (second compound 0.01 µM): > 10 µM
IC50 (second compound 0.0316 µM): > 10 µM
IC50 (second compound 0.1 µM): > 10 µM
IC50 (second compound 0.316 µM): > 10 µM
IC50 (second compound 1 µM): > 10 µM
viability, T/C [1]: 95.1%
viability, T/C [2]: 91.5%
viability, T/C [3]: 77.3%
viability, T/C [4]: 71.3%
viability, T/C [5]: 79.7%
viability, T/C [6]: 76%
viability, T/C [7]: 96.3%
viability, T/C [8]: 76.5%
viability, T/C [9]: 78.7%
viability, T/C [10]: 74.2%
viability, T/C [11]: 75.3%
viability, T/C [12]: 90.6%
viability, T/C [13]: 94%
viability, T/C [14]: 91.5%
viability, T/C [15]: 87.2%
viability, T/C [16]: 71.8%
viability, T/C [17]: 66.6%
viability, T/C [18]: 71.7%
viability, T/C [19]: 91.1%
viability, T/C [20]: 92.8%
viability, T/C [21]: 82.5%
viability, T/C [22]: 65.1%
viability, T/C [23]: 77.6%
viability, T/C [24]: 74.6%
viability, T/C [25]: 101%
viability, T/C [26]: 99.8%
viability, T/C [27]: 81.8%
viability, T/C [28]: 83.6%
viability, T/C [29]: 74.2%
viability, T/C [30]: 71%
viability, T/C [31]: 103%
viability, T/C [32]: 91%
viability, T/C [33]: 80.4%
viability, T/C [34]: 73.2%
viability, T/C [35]: 81.5%
viability, T/C [36]: 76.5%

NC1c2ccccc2OC12CCN(c1cnc3c(N4CCCc5ncccc54)n[nH]c3n1)CC2 (stereo unspecified) + C=CC(=O)N1CCN(c2nc(OCC3CCCN3C)nc3c(F)c(-c4nc(N)cc(C)c4C(F)(F)F)c(Cl)cc23)C(C)C1
IC50 (second compound 0.00316 µM): > 10 µM
IC50 (second compound 0.01 µM): > 10 µM
IC50 (second compound 0.0316 µM): > 10 µM
IC50 (second compound 0.1 µM): > 10 µM
IC50 (second compound 0.316 µM): > 10 µM
IC50 (second compound 1 µM): > 10 µM
viability, T/C [1]: 81.4%
viability, T/C [2]: 77.9%
viability, T/C [3]: 71.7%
viability, T/C [4]: 80.1%
viability, T/C [5]: 77.2%
viability, T/C [6]: 55.8%
viability, T/C [7]: 84.1%
viability, T/C [8]: 75.3%
viability, T/C [9]: 87.9%
viability, T/C [10]: 70%
viability, T/C [11]: 79.1%
viability, T/C [12]: 62.9%
viability, T/C [13]: 82.9%
viability, T/C [14]: 66.2%
viability, T/C [15]: 76.7%
viability, T/C [16]: 85.3%
viability, T/C [17]: 72.9%
viability, T/C [18]: 59.1%
viability, T/C [19]: 91.2%
viability, T/C [20]: 86.5%
viability, T/C [21]: 71%
viability, T/C [22]: 72.6%
viability, T/C [23]: 84%
viability, T/C [24]: 81.7%
viability, T/C [25]: 82.7%
viability, T/C [26]: 91.5%
viability, T/C [27]: 82.5%
viability, T/C [28]: 91.5%
viability, T/C [29]: 80.2%
viability, T/C [30]: 61%
viability, T/C [31]: 91.5%
viability, T/C [32]: 68.8%
viability, T/C [33]: 69.5%
viability, T/C [34]: 72.1%
viability, T/C [35]: 74%
viability, T/C [36]: 66.2%

Nc1ccn(C2OC(CO)C(O)C2(F)F)c(=O)n1 (stereo unspecified) + C=CC(=O)N1CCN(c2nc(OCC3CCCN3C)nc3c(F)c(-c4nc(N)cc(C)c4C(F)(F)F)c(Cl)cc23)C(C)C1
IC50 (second compound 0.00316 µM): 0.015 µM
IC50 (second compound 0.01 µM): 0.0168 µM
IC50 (second compound 0.0316 µM): 0.0175 µM
IC50 (second compound 0.1 µM): 0.0176 µM
IC50 (second compound 0.316 µM): 0.0137 µM
IC50 (second compound 1 µM): 0.0175 µM
viability, T/C (second compound 0.00316 µM, first compound 0.00316 µM): 89.7%
viability, T/C (second compound 0.00316 µM, first compound 0.01 µM): 70.5%
viability, T/C [1]: 12.2%
viability, T/C [2]: 7.74%
viability, T/C [3]: 7.62%
viability, T/C [4]: 8.54%
viability, T/C (second compound 0.01 µM, first compound 0.00316 µM): 101%
viability, T/C (second compound 0.01 µM, first compound 0.01 µM): 81.4%
viability, T/C [7]: 11.6%
viability, T/C [8]: 8.54%
viability, T/C [9]: 7.95%
viability, T/C [10]: 11.2%
viability, T/C (second compound 0.0316 µM, first compound 0.00316 µM): 84.2%
viability, T/C (second compound 0.0316 µM, first compound 0.01 µM): 86%
viability, T/C [13]: 13%
viability, T/C [14]: 6.18%
viability, T/C [15]: 9.67%
viability, T/C [16]: 8.77%
viability, T/C (second compound 0.1 µM, first compound 0.00316 µM): 96.1%
viability, T/C (second compound 0.1 µM, first compound 0.01 µM): 86.2%
viability, T/C [19]: 12.4%
viability, T/C [20]: 9.42%
viability, T/C [21]: 8.72%
viability, T/C [22]: 8.42%
viability, T/C (second compound 0.316 µM, first compound 0.00316 µM): 98.1%
viability, T/C (second compound 0.316 µM, first compound 0.01 µM): 63.7%
viability, T/C [25]: 13.7%
viability, T/C [26]: 7.48%
viability, T/C [27]: 6.75%
viability, T/C [28]: 9.71%
viability, T/C (second compound 1 µM, first compound 0.00316 µM): 103%
viability, T/C (second compound 1 µM, first compound 0.01 µM): 85.2%
viability, T/C [31]: 13%
viability, T/C [32]: 8.41%
viability, T/C [33]: 9.99%
viability, T/C [34]: 10.3%
